Data published in patent publication US12678431B2, “Pharmaceutical composition for treatment of dementia and cerebrovascular disorders” (FUSO PHARMACEUTICAL INDUSTRIES, LTD., priority 2019, dated 2026).

Columns and labels:
Format in all cases: in vivo
[1] = test system: matrix metalloproteinase 9 (MMP-9); test: Test for suppression of blood-brain barrier disruption (western blotting, MMP-9 antibody) in vascular dementia disease model mouse; conditions: BCAS model mouse; 100 μmol/kg oral or intraperitoneal, three times/week; hippocampus and striatal tissue, 7 days after the surgery; FIG. 2
Source text: (§1) Firstly, according to a general preparation method for vascular dementia disease model mouse (for example, Shibata M, Ohtani R, Ihara M, et al., Stroke 35: 2598-2603, 2004; or Ihara M, Taguchi A, Maki T, et al., Methods Mol Biol 1135: 95-102, 2014), the mouse was equipped with a 0.18 mm microcoil into a right common carotid artery of the mice and a 0.16 mm microcoil into a left common carotid artery thereof.
Next, a vascular dementia disease model mouse (hereinafter sometimes referred to as Bilateral common artery stenosis (BCAS) model) was prepared according to the below-mentioned schedule as shown in FIG. 1. […]
The vascular dementia disease model mouse which was prepared in the Test Example 1 was euthanized on 7 days after the surgery. […] The homogenate was crushed with ultrasonic while cooling on ice, and after centrifuging, the supernatant was subjected to a protein quantification by a bicinchoninic acid (BCA) method. Thereafter, the prepared protein sample was evaluated on an effect on suppression of blood-brain barrier disruption according to a western blotting method using antibody against matrix metalloproteinase 9 (MMP-9) similarly to a generally known method. […]

[2] = test system: myelin basic protein (MBP); test: Test for suppression against reduction of a myelin basic protein (MBP), brain section immunostaining in vascular dementia disease model mouse; conditions: BCAS model mouse; 100 μmol/kg oral or intraperitoneal, three times/week; brain frozen section, 28 days after the surgery; FIG. 3
Source text: as §1
(§2) Next, a vascular dementia disease model mouse (hereinafter sometimes referred to as Bilateral common artery stenosis (BCAS) model) was prepared according to the below-mentioned schedule as shown in FIG. 1.
Ethoxyquin or methyldopa were administered by an oral administration or an intraperitoneal administration in a dose of 100 μmol/kg by a ratio of three times/week until the completion of the test (for example, for 1 to 4 weeks). Here the test results in the case where a healthy mouse as control was used is shown.
The vascular dementia disease model mouse which was prepared in the Test Example 1 was euthanized on 28 days after the surgery. The frozen section of the brain of the mice (N (number of animal)=6 to 8 animals) were immobilized in cold acetone for 10 minutes, and washed with PBS for 5 minutes (× three times). […]

[3] = test system: vascular dementia disease model mouse (BCAS model); test: Novel object recognition test in vascular dementia disease model mouse; conditions: 100 μmol/kg oral or intraperitoneal, three times/week, FIG. 4
Source text: as §1, §2
Ethoxyquin or methyldopa were administered by an oral administration or an intraperitoneal administration in a dose of 100 μmol/kg by a ratio of three times/week until the completion of the test (for example, for 1 to 4 weeks). […]
A novel object recognition test was conducted by utilizing rodent's character of seeking novelty. […] After a certain times were passed, one of the object was changed by a novel object, and the animals were placed in the same observation box again, and the time exploring an object was measured for 10 minutes (Test trial). The time exploring a novel object or the time exploring the learned object were defined as “N” or “F” respectively, and were calculated by the following equation: the Exploration time=N+F, and the Discrimination Index=(N−F)/(N+F). […]

[4] = test system: vascular dementia disease model mouse (BCAS model); test: Test for influence on cerebral blood flow (Laser-Doppler blood flow meter) in vascular dementia disease model mice; conditions: 50, 75 or 100 μmol/kg oral or intraperitoneal, three times/week, measured up to 14 days after surgery, FIG. 5
Source text: as §1, §2
In the vascular dementia disease model mice (N (number of animals)=6 to 8 animals) that were prepared in the Test Example 1, a cerebral blood flow of a boundary region (blegma) between middle cerebral artery and anterior cerebral artery was measured at immediately before ischemic surgery, immediately after ischemic surgery, after 1 day, after 4 days, after 7 days or after 14 days. A Laser-Doppler blood flow meter was fixed on a skull, and a cerebral blood flow was measured, and the cerebral blood flow was evaluated as a ratio thereof to cerebral blood flow immediately before ischemic surgery. […]

| SMILES | effect on suppressing a blood-brain barrier disruption (MMP-9 western blotting) [1] | effect on suppression of the reduction of myelin basic protein [2] | novel object recognition (cognitive dysfunction, long-term spatial memory; Discrimination Index) [3] | influence on cerebral blood flow (ratio to flow immediately before ischemic surgery) [4] |
| --- | --- | --- | --- | --- |
| CCOc1ccc2c(c1)C(C)=CC(C)(C)N2 [Compound 1, 6-Ethoxy-2,2,4-trimethyl-1,2-dihydroquinoline] | suggested an effect on suppressing a blood-brain barrier disruption | suggested an effect on a suppression of the reduction of myelin basic protein | showed an improved cognitive dysfunction in a long-term spatial memory | do not affect any cerebral blood flow |
| C[C@](N)(Cc1ccc(O)c(O)c1)C(=O)O [Compound 2, Methyldopa sesquihydrates] | suggested an effect on suppressing a blood-brain barrier disruption | suggested an effect on a suppression of the reduction of myelin basic protein | showed an improved cognitive dysfunction in a long-term spatial memory | do not affect any cerebral blood flow |
